Source: patent US9428500B2, “Alpha-carbolines for the treatment of cancer” (UNIVERSITA' DEGLI STUDI DI MILANO—BICOCCA, priority 2012, dated 2016)

What follows are compounds tested on parental untransformed BaF3 cells (assay: Tritiated thymidine uptake cell proliferation assay, parental BaF3). Settings: 3H-thymidine uptake, 72 h, medium with IL-3.
Assay type: cell-based
In the case of “62:38 mixture of (E)-6-(4-(4-methylpiperazin-1-yl)phenyl)-4-(1-phenylbut-1-en-2-yl)-9H-pyrido[2,3-b]indole and (E)-6-(4-(4-methylpiperazin-1-yl)phenyl)-4-(1-phenylbut-1-en-1-yl)-9H-pyrido[2,3-b]indole [Example 31]”, the IC50 is reported as 0.93 µM.

Same assay, conditions: Mus musculus, BaF3; 3H-thymidine uptake, 72 h, medium with IL-3
In the case of `CN1CCN(c2ccc(-c3ccc4[nH]c5nccc(Cl)c5c4c3)cc2)CC1` [Example 1, 4-Chloro-6-[4-(4-methylpiperazin-1-yl)-phenyl]-9H-pyrido[2,3-b]indole], the IC50 is reported as 1.4 µM. For `CN1CCN(c2ccc(-c3ccc4[nH]c5nccc(/C=C/c6ccccc6)c5c4c3)cc2)CC1` [Example 2, (E)-6-[4-(4-Methylpiperazin-1-yl)-phenyl]-4-(2-phenylvinyl)-9H-pyrido[2,3-b]indole], the IC50 was 0.8 µM. With `C/C(=C\c1ccccc1C(F)(F)F)c1ccnc2[nH]c3ccc(-c4ccc(N5CCN(C)CC5)cc4)cc3c12` [Example 3, (E)-6-[4-(4-Methylpiperazin-1-yl)-phenyl]-4-[1-(2-(trifluoromethyl)phenyl)prop-1-en-2-yl]-9H-pyrido[2,3-b]indole] the IC50 was 2.4 µM. With `CN1CCN(c2ccc(-c3ccc4[nH]c5nccc(-c6ccc(-c7ccccc7)cc6)c5c4c3)cc2)CC1` [Example 5, 4-Biphenyl-4-yl-6-[4-(4-methylpiperazin-1-yl)-phenyl]-9H-pyrido[2,3-b]indole] the IC50 was > 25 µM. In the case of `CN1CCN(c2ccc(-c3ccc4[nH]c5nccc(/C=C/c6cccc(F)c6)c5c4c3)cc2)CC1` [Example 6, (E)-4-[2-(3-Fluorophenyl)vinyl]-6-[4-(4-methylpiperazin-1-yl)-phenyl]-9H-pyrido[2,3-b]indole], the IC50 is reported as 9.5 µM. `COc1ccc(/C=C/c2ccnc3[nH]c4ccc(-c5ccc(N6CCN(C)CC6)cc5)cc4c23)cc1` [Example 7, (E)-4-[2-(4-Methoxyphenyl)vinyl]-6-[4-(4-methylpiperazin-1-yl)-phenyl]-9H-pyrido[2,3-b]indole] showed an IC50 of 4.1 µM. `CN1CCN(c2ccc(-c3ccc4[nH]c5nccc(-c6ccc(OCc7ccccc7)cc6)c5c4c3)cc2)CC1` [Example 8, 4-(4-Benzyloxyphenyl)-6-[4-(4-methylpiperazin-1-yl)-phenyl]-9H-pyrido[2,3-b]indole] was tested, and the IC50 was 5 µM. For `CN1CCN(c2ccc(-c3ccc4[nH]c5nccc(-c6ccc(COc7cccc(C(F)(F)F)c7)cc6)c5c4c3)cc2)CC1` [Example 9, 6-[4-(4-Methylpiperazin-1-yl)-phenyl]-4-[4-(3-trifluoromethyl-phenoxymethyl)-phenyl]-9H-pyrido[2,3-b]indole], the IC50 was 25 µM. Compound `COc1ccccc1/C=C/c1ccnc2[nH]c3ccc(-c4ccc(N5CCN(C)CC5)cc4)cc3c12` [Example 10, (E)-4-(2-(2-Methoxyphenyl)vinyl)-6-(4-(4-methylpiperazin-1-yl)phenyl)-9H-pyrido[2,3-b]indole] has an IC50 of 2.1 µM. `CN1CCN(c2ccc(-c3ccc4[nH]c5nccc(/C=C/c6ccccc6C(F)(F)F)c5c4c3)cc2)CC1` [Example 11, (E)-6-(4-(4-Methylpiperazin-1-yl)phenyl)-4-(2-(2-(trifluoromethyl)phenyl)vinyl)-9H-pyrido[2,3-b]indole] was tested, and the IC50 was 1.7 µM. With `Cc1cc(OCc2ccc(-c3ccnc4[nH]c5ccc(-c6ccc(N7CCN(C)CC7)cc6)cc5c34)cc2)ccc1Cl` [Example 12, 4-[4-(4-Chloro-3-methyl-phenoxymethyl)-phenyl]-6-[4-(4-methylpiperazin-1-yl)-phenyl]-9H-pyrido[2,3-b]indole] the IC50 was > 50 µM. In the case of `CN1CCN(c2ccc(-c3ccc4[nH]c5nccc(/C=C/c6ccc(F)cc6)c5c4c3)cc2)CC1` [Example 13, (E)-4-(2-(4-Fluorophenyl)vinyl)-6-(4-(4-methylpiperazin-1-yl)phenyl)-9H-pyrido[2,3-b]indole], the IC50 is reported as 7.6 µM. For `CN1CCN(c2ccc(-c3ccc4[nH]c5nccc(/C=C/c6ccc(C(F)(F)F)cc6)c5c4c3)cc2)CC1` [Example 14, (E)-6-(4-(4-Methylpiperazin-1-yl)phenyl)-4-(2-(4-(trifluoromethyl)phenyl)vinyl)-9H-pyrido[2,3-b]indole], the IC50 was > 25 µM. Work on `CN1CCN(c2ccc(-c3ccc4[nH]c5nccc(-c6ccc(-c7ccccc7)cc6F)c5c4c3)cc2)CC1` [Example 15, 4-(3-Fluoro-biphenyl-4-yl)-6-[4-(4-methylpiperazin-1-yl)-phenyl]-9H-pyrido[2,3-b]indole] yielded an IC50 of 6.3 µM. In the case of `CN1CCN(c2ccc(-c3ccc4[nH]c5nccc(-c6cccc(-c7ccccc7)c6)c5c4c3)cc2)CC1` [Example 17, 4-Biphenyl-3-yl-6-[4-(4-methylpiperazin-1-yl)-phenyl]-9H-pyrido[2,3-b]indole], the IC50 is reported as 2.7 µM. With `CN1CCN(c2ccc(-c3ccc4[nH]c5nccc(/C=C/c6ccccc6F)c5c4c3)cc2)CC1` [Example 18, (E)-4-(2-(2-Fluorophenyl)vinyl)-6-(4-(4-methylpiperazin-1-yl)phenyl)-9H-pyrido[2,3-b]indole] the IC50 was 5.1 µM. With `CN1CCN(c2ccc(-c3ccc4[nH]c5nccc(/C=C/c6ccccc6Cl)c5c4c3)cc2)CC1` [Example 19, (E)-4-(2-(2-Chlorophenyl)vinyl)-6-(4-(4-methylpiperazin-1-yl)phenyl)-9H-pyrido[2,3-b]indole] the IC50 was 2 µM. `CN1CCC(N2CCN(c3ccc(-c4ccc5[nH]c6nccc(-c7ccc(Cc8ccccc8)cc7)c6c5c4)cc3)CC2)CC1` [Example 21, 4-(4-Benzylphenyl)-6-(4-(4-(1-methylpiperidin-4-yl)piperazin-1-yl)phenyl)-9H-pyrido[2,3-b]indole] was tested, and the IC50 was 3.7 µM. `CN1CCC(N2CCN(c3ccc(-c4ccc5[nH]c6nccc(/C=C/c7ccccc7C(F)(F)F)c6c5c4)cc3)CC2)CC1` [Example 22, (E)-6-(4-(4-(1-Methylpiperidin-4-yl)piperazin-1-yl)phenyl)-4-(2-(2-(trifluoromethyl)phenyl)vinyl)-9H-pyrido[2,3-b]indole] was tested, and the IC50 was 3.9 µM. `CN1CCN(c2ccc(-c3ccc4[nH]c5nccc(-c6ccc(C(=O)c7ccccc7)cc6)c5c4c3)cc2)CC1` [Example 23, (4-{6-[4-(4-Methylpiperazin-1-yl)-phenyl]-9H-pyrido[2,3-b]indol-4-yl}-phenyl)-phenyl-methanone] was tested, and the IC50 was 2.3 µM. `CN1CCN(c2ccc(-c3ccc4[nH]c5nccc(-c6ccc(-c7cccc8ccccc78)cc6)c5c4c3)cc2)CC1` [Example 24, 6-[4-(4-Methylpiperazin-1-yl)-phenyl]-4-(4-naphthalen-1-yl-phenyl)-9H-pyrido[2,3-b]indole] showed an IC50 of 18 µM. `CN1CCN(c2ccc(-c3ccc4[nH]c5nccc(/C(=C/c6ccccc6)c6ccccc6)c5c4c3)cc2)CC1` [Example 25, (E)-4-(1,2-Diphenylvinyl)-6-[4-(4-methylpiperazin-1-yl)-phenyl]-9H-pyrido[2,3-b]indole] gave an IC50 of 7.5 µM. In the case of `COc1ccc(Cc2ccc(-c3ccnc4[nH]c5ccc(-c6ccc(N7CCN(C)CC7)cc6)cc5c34)cc2)c(OC)c1` [Example 26, 4-[4-(2,4-Dimethoxybenzyl)phenyl]-6-[4-(4-methylpiperazin-1-yl)-phenyl]-9H-pyrido[2,3-b]indole], the IC50 is reported as 0.63 µM. For `COc1ccccc1/C=C(\C)c1ccnc2[nH]c3ccc(-c4ccc(N5CCN(C)CC5)cc4)cc3c12` [Example 27, (E)-4-[1-(2-Methoxyphenyl)-prop-1-en-2-yl]-6-[4-(4-methylpiperazin-1-yl)-phenyl]-9H-pyrido[2,3-b]indole], the IC50 was 2.4 µM.
